From DBAASP
Converted amounts (≈) assume the structure as drawn.

Legend:
Assay in all cases: ≥ marks a high value that may be exact or a test limit, other limits are often not marked, values filed in µg/mL are converted to µM
[1] = tested on: Escherichia coli MG1655
[2] = tested on: Klebsiella pneumoniae ATCC 700603
[3] = tested on: Pseudomonas aeruginosa ATCC 10145
[4] = tested on: Staphylococcus aureus ATCC 25923
[5] = tested on: Candida albicans
[6] = tested on: Pseudomonas aeruginosa PAO1
[7] = tested on: Escherichia coli JW0013

| Compound | MIC [1] | MIC [4] | MIC [7] | other results |
| --- | --- | --- | --- | --- |
| CC(C)C[C@H](NC(=O)[C@H](Cc1ccc(O)cc1)NC(=O)[C@H](Cc1cnc[nH]1)NC(=O)[C@H](CCCCN)NC(=O)[C@H](CC(C)C)NC(=O)[C@H](C)NC(=O)[C@H](CC(C)C)NC(=O)[C@H](CCCCN)NC(=O)CNC(=O)[C@@H](NC(=O)[C@@H](NC(=O)[C@H](CCCCN)NC(=O)[C@@H](NC(=O)[C@H](CCC(=O)O)NC(=O)[C@H](C)NC(=O)[C@H](CCCCN)NC(=O)[C@H](CCCCN)NC(=O)[C@H](CC(C)C)NC(=O)[C@H](CC(C)C)NC(=O)[C@@H](NC(=O)[C@H](CCCN=C(N)N)NC(=O)[C@H](Cc1c[nH]c2ccccc12)NC(=O)CN)[C@@H](C)O)C(C)C)[C@@H](C)O)C(C)C)C(=O)O [GWRTLLKKAEVKTVGKLALKHYL] | 8.3 µM (≈ 22 µg/mL) | 4.15 µM (≈ 11 µg/mL) |  | MIC [2]: 4.15 µM (≈ 11 µg/mL); MIC [3]: 0.25 µM (≈ 0.663 µg/mL) |
| CSCC[C@H](NC(=O)[C@@H](NC(=O)[C@@H](N)CCCCN)C(C)C)C(=O)N[C@@H](CCCN=C(N)N)C(=O)N[C@@H](CCC(=O)O)C(=O)N[C@H](C(=O)N[C@@H](CC(C)C)C(=O)NCC(=O)N[C@@H](Cc1ccc(O)cc1)C(=O)N[C@@H](CCC(=O)O)C(=O)N[C@@H](CCCN=C(N)N)C(=O)N[C@@H](CC(N)=O)C(=O)N[C@@H](CO)C(=O)N[C@@H](Cc1ccc(O)cc1)C(=O)N[C@@H](CCCCN)C(=O)N[C@@H](CCCCN)C(=O)N[C@@H](Cc1ccccc1)C(=O)N[C@@H](Cc1ccccc1)C(=O)N[C@@H](CC(C)C)C(=O)N[C@@H](CCCN=C(N)N)C(N)=O)C(C)C [KVMREVLGYERNSYKKFFLR] | ≥ 128 µM | > 128 µM |  | MIC [5]: 128 µM (≈ 328 µg/mL); MIC [6]: > 128 µM |
| CC[C@H](C)[C@H](NC(=O)[C@H](CCCN=C(N)N)NC(=O)[C@H](CCCN=C(N)N)NC(=O)[C@@H]1CCCN1C(=O)[C@@H]1CCCN1C(=O)[C@H](CCCN=C(N)N)NC(=O)[C@@H]1CCCN1C(=O)[C@H](CCCN=C(N)N)NC(=O)[C@@H]1CCCN1C(=O)[C@H](CC(C)C)NC(=O)[C@H](Cc1ccc(O)cc1)NC(=O)[C@@H]1CCCN1C(=O)[C@@H]1CCCN1C(=O)[C@H](CCCCN)NC(=O)[C@H](CC(=O)O)NC(=O)[C@@H](N)CC(C)C)C(=O)N[C@@H](Cc1ccc(O)cc1)C(=O)N[C@@H](CC(N)=O)C(=O)N[C@@H](CCCN=C(N)N)C(N)=O [LDKPPYLPRPRPPRRIYNR] |  |  | 2 µM (≈ 4.8 µg/mL) |  |

Continued, in another order:

| MIC [1] | MIC [4] | MIC [7] | Compound | other results |
| --- | --- | --- | --- | --- |
|  |  | 0.3 µM (≈ 0.707 µg/mL) | CC[C@H](C)[C@H](NC(=O)[C@@H]1CCCN1C(=O)[C@H](CCCN=C(N)N)NC(=O)[C@@H]1CCCN1C(=O)[C@@H]1CCCN1C(=O)[C@@H](NC(=O)[C@@H]1CCCN1C(=O)[C@H](CCCN=C(N)N)NC(=O)[C@@H]1CCCN1C(=O)[C@H](CCCCN)NC(=O)[C@H](Cc1ccc(O)cc1)NC(=O)[C@H](CO)NC(=O)CNC(=O)[C@H](CCCCN)NC(=O)[C@H](CC(=O)O)NC(=O)[C@@H](N)C(C)C)[C@@H](C)O)C(=O)N[C@@H](Cc1ccc(O)cc1)C(=O)N[C@@H](CC(N)=O)C(=O)N[C@@H](CCCN=C(N)N)C(=O)N[C@@H](CC(N)=O)C(=O)O [VDKGSYKPRPTPPRPIYNRN] |  |
|  |  | 2.04 µM (≈ 4.8 µg/mL) | CC[C@H](C)[C@H](NC(=O)[C@H](CCCN=C(N)N)NC(=O)[C@H](CCCN=C(N)N)NC(=O)[C@@H]1CCCN1C(=O)[C@@H]1CCCN1C(=O)[C@H](CCCN=C(N)N)NC(=O)[C@@H]1CCCN1C(=O)[C@H](CCCN=C(N)N)NC(=O)[C@@H]1CCCN1C(=O)[C@H](CC(C)C)NC(=O)[C@H](Cc1ccc(O)cc1)NC(=O)CNC(=O)[C@@H]1CCCN1C(=O)[C@H](CCCCN)NC(=O)[C@H](CC(=O)O)NC(=O)[C@@H](N)C(C)C)C(=O)N[C@@H](Cc1ccc(O)cc1)C(=O)N[C@@H](CC(N)=O)C(=O)N[C@@H](CCCN=C(N)N)C(N)=O [VDKPGYLPRPRPPRRIYNR] |  |
